Experimental data taken from ChEMBL document CHEMBL1201862, “PubChem BioAssay data set” (2004).
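96-well plates; 48 h exposure; 5 concentrations. Endpoints by linear interpolation between flanking doses. Not reached: highest tested concentration assigned. Abbreviation: GI50, concentration required for 50% inhibition of growth.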 The source made the active and inactive calls. Rule as the data show it: active = GI50 up to about 1.1 µM and inactive = higher.

Experiments:
Assay in all cases: NCI-60 cell line screen, 48 h
[1] = tested on: MDA-MB-435
[2] = tested on: DU-145
[3] = tested on: HOP-18
[4] = tested on: OVCAR-5
[5] = tested on: UO-31
[6] = tested on: MDA-MB-231
[7] = tested on: HOP-92
[8] = tested on: HL-60
[9] = tested on: NCI-H23
[10] = tested on: SNB-78
[11] = tested on: SR
[12] = tested on: ACHN
[13] = tested on: LXFL 529
[14] = tested on: NCI-H460
[15] = tested on: KM-20L2
[16] = tested on: CCRF-CEM
[17] = tested on: PC-3
[18] = tested on: SK-MEL-5
[19] = tested on: COLO 205
[20] = tested on: BT-549
[21] = tested on: OVCAR-3
[22] = tested on: SF-539
[23] = tested on: SNB-75
[24] = tested on: A498
[25] = tested on: HOP-62
[26] = tested on: 786-0
[27] = tested on: SW-620
[28] = tested on: RXF 631
[29] = tested on: RPMI-8226
[30] = tested on: DMS-114
[31] = tested on: SF-268
[32] = tested on: UACC-62
[33] = tested on: HCT-116
[34] = tested on: SNB-19
[35] = tested on: OVCAR-4
[36] = tested on: MDA-N
[37] = tested on: A549
[38] = tested on: MOLT-4
[39] = tested on: K562
[40] = tested on: NCI-H226
[41] = tested on: LOX IMVI
[42] = tested on: Malme-3M
[43] = tested on: DLD-1
[44] = tested on: SN12C
[45] = tested on: M14
[46] = tested on: TK-10
[47] = tested on: SK-MEL-2
[48] = tested on: CAKI-1
[49] = tested on: HCC 2998
[50] = tested on: RXF 393
[51] = tested on: SK-OV-3
[52] = tested on: T47D
[53] = tested on: SF-295
[54] = tested on: OVCAR-8
[55] = tested on: XF498
[56] = tested on: Hs-578T
[57] = tested on: IGROV-1
[58] = tested on: SK-MEL-28
[59] = tested on: U-251
[60] = tested on: M19-MEL
[61] = tested on: UACC-257
[62] = tested on: NCI-H522
[63] = tested on: HT-29
[64] = tested on: KM12
[65] = tested on: EKVX
[66] = tested on: DMS-273
[67] = tested on: HCT-15

Measured: GI50

Cc1cc(NCCCCCCCNc2cc(C)nc3cc([N+](=O)[O-])ccc23)c2ccc([N+](=O)[O-])cc2n1
2.55 µM: [67]
active: [8] 0.451 µM
inactive: [1] 11.7 µM | [2] 3.08 µM | [3] 17.3 µM | [4] 15.6 µM | [5] 13.9 µM | [6] 2.47 µM | [7] 16.5 µM | [9] 5.18 µM | [10] 15.9 µM | [11] 1.53 µM | [12] 12.7 µM | [13] 1.56 µM | [14] 2.04 µM | [15] 10.8 µM | [16] 2.04 µM | [17] 13.5 µM | [18] 6.43 µM | [19] 9.23 µM | [20] 20 µM | [21] 4.38 µM | [22] 8.63 µM | [23] 11.2 µM | [24] 10.8 µM | [25] 20.5 µM | [26] 4.8 µM | [27] 2.1 µM | [28] 7.93 µM | [29] 1.87 µM | [30] 1.38 µM | [31] 2.4 µM | [32] 16.6 µM | [33] 1.69 µM | [34] 10.3 µM | [35] 2 µM | [36] 1.78 µM | [37] 3.69 µM | [38] 1.9 µM | [39] 1.28 µM | [40] 18 µM | [41] 2 µM | [42] 29.6 µM | [43] 1.82 µM | [44] 4 µM | [45] 10.7 µM | [46] 17.7 µM | [47] 24.7 µM | [48] 23.7 µM | [49] 11.1 µM | [50] 8.18 µM | [51] 24.9 µM | [52] 3.52 µM | [53] 5.9 µM | [54] 1.87 µM | [55] 13.7 µM | [56] 1.86 µM | [57] 9.44 µM | [58] 4.34 µM | [59] 4.28 µM | [60] 12.4 µM | [61] 15.1 µM | [62] 1.61 µM | [63] 2.53 µM | [64] 1.85 µM | [65] 15.2 µM | [66] 4.29 µM
